# Entries after “also recorded” stand apart in the source; their conditions may differ. Read-outs that look alike come from different tables or passages of the source.
# Experiments:
# [1] = target: T1, trypsin (Bos taurus, UniProt P00760); assay: Drug release assay with trypsin; assay type: biochemical, bovine; settings: for half-life at 25 μM: bovine, pH 7.2, free linker-drug constructs, HPLC at 348 nm, 37° C., phosphate buffer pH 7.2, read-out: Trypsin t1/2 (time when 50% of the drug is released from linker); for Time to complete hydrolysis / complete release of drug with trypsin: free linker-drug constructs, monitored by HPLC or LCMS
# T1 construct: purchased Sigma-Aldrich
# T1 sequence (P00760 24-246): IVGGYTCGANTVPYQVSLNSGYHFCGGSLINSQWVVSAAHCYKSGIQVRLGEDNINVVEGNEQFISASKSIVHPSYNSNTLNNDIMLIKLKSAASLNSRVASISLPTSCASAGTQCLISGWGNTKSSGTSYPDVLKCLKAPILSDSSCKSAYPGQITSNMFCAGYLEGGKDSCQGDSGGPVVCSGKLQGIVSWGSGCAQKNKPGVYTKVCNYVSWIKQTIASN
# Description: Drug Release Assays with Trypsin:
# For analysis, 70 μL portions were removed and quenched with acid (HCl) at specified time points (e.g., 5, 15, 30, 60, 120 minutes or longer) then run on HPLC/LCMS. NDCs were stored in water at 4° C. Trypsin stocks were prepared as follows: 1 mg of trypsin was dissolved in 1 mL water, aliquoted, then immediately flash frozen and stored at −80° C. for up to four weeks. Enzyme activity was tested prior to drug release assay using the substrate Z-Arg-Arg-para-nitro-aniline. The % Free Drug (FIGS. 3 and S3) is the quantity of free drug divided by the initial quantity of drug loaded for the linker-drug construct or NDC. The quantity of free drug is determined by area of the HPLC peak corresponding to the released drug at 348 nm. The quantity of drug loaded is the area of the HPLC peak, at 348 nm, for the linker-drug construct or NDC prior to enzyme treatment. As the C'dot-(Cy5)-PEG-mal has background absorbance at 348 nm, a background subtraction for the NDC is necessary. All buffers and solutions were prepared using ultra-pure water (18 Me-cm resistivity).
# [2] = target: cathepsin B (Homo sapiens, UniProt P07858); assay: Drug release assay with cathepsin B; assay type: biochemical; settings: free linker-drug constructs; for Hydrolysis / drug release in the presence of cathepsin B: monitored by HPLC or LCMS; for half-life at 25 μM: HPLC at 348 nm, sodium acetate buffer pH 5.0, NH = no hydrolysis, read-out: Cathepsin B t1/2 (time when 50% of the drug is released from linker)
# Description: Drug Release Assays with Cathepsin B:
# For analysis, 70 μL portions were removed and quenched with acid (HCl) at specified time points (e.g., 5, 15, 30, 60, 120 minutes or longer) then run on HPLC/LCMS. NDCs were stored in water at 4° C. […] Enzyme activity was tested prior to drug release assay using the substrate Z-Arg-Arg-para-nitro-aniline. The % Free Drug (FIGS. 4A, 4B, 6A and 6B) is the quantity of free drug divided by the initial quantity of drug loaded for the linker-drug construct or NDC, as described in the previous paragraph. All buffers and solutions were prepared using ultra-pure water (18 MΩ-cm resistivity).
# [3] = target: EGFR (phospho-Tyr168) in H1650 cells (Homo sapiens, UniProt P00533, DEL746-750); assay: PhosphoEGFR assay with H1650 cells (western blot); settings: 1 and 10 μM, compared with gefitinib
# Description: Serum starved cells were incubated with each compound over a period of 18 hours, then subject to EGF stimulation.
# PhosphoEGFR Assay with H1650 Cells:
# H1650 cells were seeded (1.5 million cells) in 6-well plates with 2 ml of 10% FBS DEM medium and grown for 24 hrs. Cells were washed with 1 mL of serum free DEM medium, then incubated with gefitinib or NDCs at indicated concentrations overnight (18 hrs). Cells were then treated with 50 ng/mL EGF for 5 minutes, then washed with 1 mL of PBS. […] 1 mL of 10% FBS DEM medium was added to wells, and cells were transferred to 15 mL conical tubes containing 10 mL of 10% FBS DEM medium. Cells were spun down at 3000 rpm for 5 minutes at 4° C. The cell pellets were washed with 1 mL cold PBS, transferred to 1.5 mL tubes, and spun down. PBS was decanted and 70 μL of RIPA (containing protease and phosphatase inhibitors) was added to the pellet, titurated, and incubated for 10 minutes on ice. Tubes were spun at maximum speed for 10 minutes at 4° C. Lysate was transferred to new 1.5 ml tubes and stored at −80° C. Protein concentrations were determined by the Bradford assay. Western blots were run on a Life Technologies apparatus, using Novex 8% tris-glycine gels (1.5 mm×15 wells), tris-glycine SDS running buffer, NuPAGE transfer buffer, 0.1% Tween-20 in 1×TBS washing buffer, and 5% milk in the washing buffer as the blocking buffer. […]
Inhibition of phospho-Tyr168 in EGFR [3],Molecule,half-life at 25 μM [1],Time to complete hydrolysis / complete release of drug with trypsin [1],Hydrolysis / drug release in the presence of cathepsin B [2],half-life at 25 μM [2],half-life at 25 μM ([2]; cathepsin B (isolated enzyme))
–,"COc1cc2ncnc(Nc3ccc(F)c(Cl)c3)c2cc1OCCCNC(=O)[C@H](CCCNC(=N)N)NC(=O)[C@H](Cc1ccccc1)NC(=O)CCOCCOCCNC(=O)CCOCCOCCNC(=O)CCOCCOCCNC(=O)CS [Phe-Arg-APdMG (3), Mercaptoacetamido-(dPEG2)3-Phe-Arg-APdMG]",9 min,≤ 60 min,no hydrolysis was observed; also recorded: no drug release was observed,–,–
–,"COc1cc2ncnc(Nc3ccc(F)c(Cl)c3)c2cc1OCCCNC(=O)CCOCCOCCNC(=O)[C@H](CCCNC(=N)N)NC(=O)[C@H](Cc1ccccc1)NC(=O)CCOCCOCCNC(=O)CCOCCOCCNC(=O)CCOCCOCCNC(=O)CS [Phe-Arg-dPEG2APdMG (4), Mercaptoacetamido-(dPEG2)3-Phe-Arg-dPEG2APdMG]",≤ 2 min,10 min,completely hydrolyzed,110 min,–
–,"COc1cc2ncnc(Nc3ccc(F)c(Cl)c3)c2cc1OCCCNC(=O)OCc1ccc(NC(=O)[C@H](CCCCN)NC(=O)[C@H](Cc2ccccc2)NC(=O)CCOCCOCCOCCOCCOCCOCCOCCOCCS)cc1 [Phe-Lys-PABC-APdMG (5), HS-dPEG8-Phe-Lys-PABC-aminopropyl-dMG]",< 1 min,10 min,–,–,< 1 min
reduced activity,Amino-dPEG2-aminopropyl-dMG [dPEG2APdMG 2],–,–,–,–,–

# From patent publication US10485881B2, “Nanoparticle drug conjugates” (Memorial Sloan Kettering Cancer Center, priority 2014, dated 2019)
